{
  "source": "ChEMBL document CHEMBL1156558",
  "about": "“Improvement of the transactivation activity of phenylpropanoic acid-type peroxisome proliferator-activated receptor pan agonists: effect of introduction of fluorine at the linker part” (Bioorg Med Chem Lett, 2008)",
  "assay_type_in_all_cases": "functional, cell-based",
  "key": {"[1]": {"molecular_target": "T1, Peroxisome proliferator-activated receptor alpha (Homo sapiens, UniProt Q07869)", "T1 sequence (Q07869 whole entry)": "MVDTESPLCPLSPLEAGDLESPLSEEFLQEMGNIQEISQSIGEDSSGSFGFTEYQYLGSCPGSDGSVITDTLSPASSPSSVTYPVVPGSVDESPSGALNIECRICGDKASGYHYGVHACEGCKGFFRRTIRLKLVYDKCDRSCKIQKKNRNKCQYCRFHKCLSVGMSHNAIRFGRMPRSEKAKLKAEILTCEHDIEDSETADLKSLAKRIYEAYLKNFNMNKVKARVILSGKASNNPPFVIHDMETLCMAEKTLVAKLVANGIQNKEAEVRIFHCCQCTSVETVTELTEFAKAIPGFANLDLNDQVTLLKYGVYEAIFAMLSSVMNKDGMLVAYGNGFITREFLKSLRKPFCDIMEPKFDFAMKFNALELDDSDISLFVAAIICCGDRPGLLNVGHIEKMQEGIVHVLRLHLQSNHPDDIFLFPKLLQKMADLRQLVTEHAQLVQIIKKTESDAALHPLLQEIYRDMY", "test": "Agonist activity at PPARalpha transfected in HEK293 cells by GAL4 transactivation assay"}, "[2]": {"molecular_target": "T2, Peroxisome proliferator-activated receptor gamma (Homo sapiens, UniProt P37231)", "T2 sequence (P37231 whole entry)": "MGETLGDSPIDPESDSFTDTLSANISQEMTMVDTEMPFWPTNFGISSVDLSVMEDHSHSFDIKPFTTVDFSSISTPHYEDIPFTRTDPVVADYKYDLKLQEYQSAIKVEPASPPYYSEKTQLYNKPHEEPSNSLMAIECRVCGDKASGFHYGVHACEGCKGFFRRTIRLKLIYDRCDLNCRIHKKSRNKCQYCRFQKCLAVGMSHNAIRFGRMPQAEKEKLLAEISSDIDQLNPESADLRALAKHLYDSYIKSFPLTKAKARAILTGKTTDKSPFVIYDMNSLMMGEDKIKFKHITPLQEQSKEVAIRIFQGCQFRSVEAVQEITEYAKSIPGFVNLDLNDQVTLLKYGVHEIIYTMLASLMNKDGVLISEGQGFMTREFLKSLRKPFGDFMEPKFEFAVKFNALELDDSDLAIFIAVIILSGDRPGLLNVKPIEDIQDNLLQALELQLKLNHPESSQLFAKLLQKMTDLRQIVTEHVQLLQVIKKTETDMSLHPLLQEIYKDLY", "test": "Agonist activity at PPARgamma transfected in HEK293 cells by GAL4 transactivation assay"}, "[3]": {"molecular_target": "T3, Peroxisome proliferator-activated receptor delta (Homo sapiens, UniProt Q03181)", "T3 sequence (Q03181 whole entry)": "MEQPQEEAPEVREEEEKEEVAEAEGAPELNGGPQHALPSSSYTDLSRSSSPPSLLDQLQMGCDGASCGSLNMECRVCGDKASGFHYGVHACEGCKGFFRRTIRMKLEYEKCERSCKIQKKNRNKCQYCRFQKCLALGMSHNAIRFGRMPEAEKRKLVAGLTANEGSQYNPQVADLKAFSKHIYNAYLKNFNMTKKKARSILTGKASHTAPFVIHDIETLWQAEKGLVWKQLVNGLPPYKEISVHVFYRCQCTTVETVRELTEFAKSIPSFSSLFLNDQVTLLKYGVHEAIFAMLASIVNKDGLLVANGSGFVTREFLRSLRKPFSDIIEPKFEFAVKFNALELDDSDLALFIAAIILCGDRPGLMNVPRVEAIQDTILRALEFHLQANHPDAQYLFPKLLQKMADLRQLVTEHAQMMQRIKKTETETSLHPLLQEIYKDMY", "test": "Agonist activity at PPARdelta transfected in HEK293 cells by GAL4 transactivation assay"}},
  "data": [
    {"compound": "CCCOc1ccc(C[C@H](CC)C(=O)O)cc1CNC(=O)c1ccc(C23CC4CC(CC(C4)C2)C3)cc1", "values": [
      {"measurement": "EC50", "setting": "[1]", "result": 58, "unit": "nM"}
    ]},
    {"compound": "CCCOc1cc(F)c(C[C@@H](CC)C(=O)O)cc1CNC(=O)c1ccc(C23CC4CC(CC(C4)C2)C3)cc1F", "values": [
      {"measurement": "EC50", "setting": "[2]", "result": 160, "unit": "nM"},
      {"measurement": "EC50", "setting": "[3]", "result": 180, "unit": "nM"},
      {"measurement": "EC50", "setting": "[1]", "result": 200, "unit": "nM"}
    ]},
    {"compound": "CCCOc1cc(F)c(C[C@H](CC)C(=O)O)cc1CNC(=O)c1ccc(C23CC4CC(CC(C4)C2)C3)cc1F", "values": [
      {"measurement": "EC50", "setting": "[2]", "result": 38, "unit": "nM"},
      {"measurement": "EC50", "setting": "[3]", "result": 25, "unit": "nM"},
      {"measurement": "EC50", "setting": "[1]", "result": 12, "unit": "nM"}
    ]},
    {"compound": "CCC(Cc1ccc(OC)c(CNC(=O)c2ccc(C(F)(F)F)cc2F)c1)C(=O)O", "note": "(racemic)", "values": [
      {"measurement": "EC50", "setting": "[2]", "result": 2600, "unit": "nM"},
      {"measurement": "EC50", "setting": "[3]", "result": 29, "unit": "nM"},
      {"measurement": "EC50", "setting": "[1]", "result": 7.9, "unit": "nM"}
    ]},
    {"compound": "CCC(Cc1ccc(OC)c(CNC(=O)c2ccc(C34CC5CC(CC(C5)C3)C4)cc2)c1)C(=O)O", "note": "(racemic)", "values": [
      {"measurement": "EC50", "setting": "[2]", "result": 110, "unit": "nM"},
      {"measurement": "EC50", "setting": "[3]", "result": 940, "unit": "nM"},
      {"measurement": "EC50", "setting": "[1]", "result": 53, "unit": "nM"}
    ]},
    {"compound": "CCC(Cc1cc(F)c(OC)c(CNC(=O)c2ccc(C(F)(F)F)cc2)c1)C(=O)O", "note": "(racemic)", "values": [
      {"measurement": "EC50", "setting": "[2]", "result": "> 10000", "unit": "nM"},
      {"measurement": "EC50", "setting": "[3]", "result": 59, "unit": "nM"},
      {"measurement": "EC50", "setting": "[1]", "result": 54, "unit": "nM"}
    ]},
    {"compound": "CCC(Cc1ccc(OC)c(CNC(=O)c2ccc(C34CC5CC(CC(C5)C3)C4)cc2F)c1)C(=O)O", "note": "(racemic)", "values": [
      {"measurement": "EC50", "setting": "[2]", "result": 140, "unit": "nM"},
      {"measurement": "EC50", "setting": "[3]", "result": 550, "unit": "nM"},
      {"measurement": "EC50", "setting": "[1]", "result": 60, "unit": "nM"}
    ]},
    {"compound": "CCC(Cc1cc(F)c(OC)c(CNC(=O)c2ccc(C34CC5CC(CC(C5)C3)C4)cc2)c1)C(=O)O", "note": "(racemic)", "values": [
      {"measurement": "EC50", "setting": "[2]", "result": 190, "unit": "nM"},
      {"measurement": "EC50", "setting": "[3]", "result": 2200, "unit": "nM"},
      {"measurement": "EC50", "setting": "[1]", "result": 260, "unit": "nM"}
    ]},
    {"compound": "CCC(Cc1cc(CNC(=O)c2ccc(C34CC5CC(CC(C5)C3)C4)cc2)c(OC)cc1F)C(=O)O", "note": "(racemic)", "values": [
      {"measurement": "EC50", "setting": "[2]", "result": 36, "unit": "nM"},
      {"measurement": "EC50", "setting": "[3]", "result": 280, "unit": "nM"},
      {"measurement": "EC50", "setting": "[1]", "result": 13, "unit": "nM"}
    ]},
    {"compound": "CCOc1cc(F)c(CC(CC)C(=O)O)cc1CNC(=O)c1ccc(C23CC4CC(CC(C4)C2)C3)cc1", "note": "(racemic)", "values": [
      {"measurement": "EC50", "setting": "[2]", "result": 24, "unit": "nM"},
      {"measurement": "EC50", "setting": "[3]", "result": 94, "unit": "nM"},
      {"measurement": "EC50", "setting": "[1]", "result": 7.1, "unit": "nM"}
    ]},
    {"compound": "CCOc1cc(F)c(CC(CC)C(=O)O)cc1CNC(=O)c1ccc(C23CC4CC(CC(C4)C2)C3)cc1F", "note": "(racemic)", "values": [
      {"measurement": "EC50", "setting": "[2]", "result": 22, "unit": "nM"},
      {"measurement": "EC50", "setting": "[3]", "result": 55, "unit": "nM"},
      {"measurement": "EC50", "setting": "[1]", "result": 7.5, "unit": "nM"}
    ]},
    {"compound": "CCCOc1cc(F)c(CC(CC)C(=O)O)cc1CNC(=O)c1ccc(C23CC4CC(CC(C4)C2)C3)cc1F", "note": "(racemic)", "values": [
      {"measurement": "EC50", "setting": "[2]", "result": 35, "unit": "nM"},
      {"measurement": "EC50", "setting": "[3]", "result": 28, "unit": "nM"},
      {"measurement": "EC50", "setting": "[1]", "result": 13, "unit": "nM"}
    ]},
    {"compound": "CCC(Cc1cc(CNC(=O)c2ccc(C(F)(F)F)cc2)c(OC)cc1F)C(=O)O", "note": "(racemic)", "values": [
      {"measurement": "EC50", "setting": "[2]", "result": 1100, "unit": "nM"},
      {"measurement": "EC50", "setting": "[3]", "result": 20, "unit": "nM"},
      {"measurement": "EC50", "setting": "[1]", "result": 3.6, "unit": "nM"}
    ]},
    {"compound": "CCCOc1cc(F)c(CC(CC)C(=O)O)cc1CNC(=O)c1ccc(C23CC4CC(CC(C4)C2)C3)cc1", "note": "(racemic)", "values": [
      {"measurement": "EC50", "setting": "[2]", "result": 15, "unit": "nM"},
      {"measurement": "EC50", "setting": "[3]", "result": 60, "unit": "nM"},
      {"measurement": "EC50", "setting": "[1]", "result": 17, "unit": "nM"}
    ]}
  ]
}
